Tests used:
Assay in all cases: relative viability (nuclei count vs DMSO), 5 days (fraction); higher = more cells survive
ABC-1 = settings: first compound 4 µM
Method in brief: (§1)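 Nuclei were stained with Hoechst during a one-step fixation (final 0.05% Triton X-100, 1% formaldehyde, 1 ug/ml Hoechst) carried out 5 days after dosing, then counted on 4× images. The cells, lung cancer lines in 1536-well plates, had been dosed by pin tool the day after seeding with one drug alone or a fixed anchor-drug dose plus five library-drug doses (not always all listed) in √10 steps. Relative viability is the nuclei count in treated wells divided by that in vehicle wells, and each value is the median of duplicate plates.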

NCI-H2009 = tested on: NCI-H2009
Method in brief: as §1

NCI-H2347 = tested on: NCI-H2347
Method in brief: as §1

HCC-15 = tested on: HCC-15
Method in brief: as §1

PC-14 = tested on: PC-14
Method in brief: as §1

NCI-H2126 = tested on: NCI-H2126
Method in brief: as §1

LU99A = tested on: LU99A
Method in brief: as §1

NCI-H2342 = tested on: NCI-H2342
Method in brief: as §1

EPLC-272H = tested on: EPLC-272H
Method in brief: as §1

NCI-H522 = tested on: NCI-H522
Method in brief: as §1

NCI-H460 = tested on: NCI-H460
Method in brief: as §1

NCI-H1915 = tested on: NCI-H1915
Method in brief: as §1

Clc1ccc(Nc2nnc(Cc3ccncc3)c3ccccc23)cc1 [Vatalanib] + CCNC(=O)c1noc(-c2cc(C(C)C)c(O)cc2O)c1-c1ccc(CN2CCOCC2)cc1 [Luminespib] (partner 0.01 µM)
relative viability (ABC-1): 0.507
relative viability (NCI-H2009; first compound 0.04 µM): 1.11
relative viability (NCI-H2009; first compound 0.1265 µM): 0.983
relative viability (NCI-H2009; first compound 0.4 µM): 1.06
relative viability (NCI-H2009; first compound 1.265 µM): 0.962
relative viability (NCI-H2009; first compound 4 µM): 1.04
relative viability (NCI-H2347; first compound 0.04 µM): 0.416
relative viability (NCI-H2347; first compound 0.1265 µM): 0.425
relative viability (NCI-H2347; first compound 0.4 µM): 0.254
relative viability (NCI-H2347; first compound 1.265 µM): 0.549
relative viability (NCI-H2347; first compound 4 µM): 0.509
relative viability (HCC-15; first compound 0.04 µM): 0.42
relative viability (HCC-15; first compound 0.1265 µM): 0.457
relative viability (HCC-15; first compound 0.4 µM): 0.181
relative viability (HCC-15; first compound 1.265 µM): 0.234
relative viability (HCC-15; first compound 4 µM): 0.235
relative viability (PC-14; first compound 0.04 µM): 0.155
relative viability (PC-14; first compound 0.1265 µM): 0.19
relative viability (PC-14; first compound 1.265 µM): 0.158
relative viability (PC-14; first compound 4 µM): 0.149
relative viability (NCI-H2126; first compound 0.04 µM): 0.925
relative viability (NCI-H2126; first compound 0.1265 µM): 0.864
relative viability (NCI-H2126; first compound 0.4 µM): 0.919
relative viability (NCI-H2126; first compound 1.265 µM): 0.94
relative viability (NCI-H2126; first compound 4 µM): 0.908
relative viability (LU99A; first compound 0.04 µM): 0.255
relative viability (LU99A; first compound 0.1265 µM): 0.238
relative viability (LU99A; first compound 0.4 µM): 0.264
relative viability (LU99A; first compound 1.265 µM): 0.286
relative viability (LU99A; first compound 4 µM): 0.246
relative viability (NCI-H2342; first compound 0.04 µM): 0.684
relative viability (NCI-H2342; first compound 0.1265 µM): 0.684
relative viability (NCI-H2342; first compound 0.4 µM): 0.822
relative viability (NCI-H2342; first compound 1.265 µM): 0.869
relative viability (NCI-H2342; first compound 4 µM): 0.658
relative viability (EPLC-272H; first compound 0.04 µM): 0.593
relative viability (EPLC-272H; first compound 0.1265 µM): 0.654
relative viability (EPLC-272H; first compound 0.4 µM): 0.26
relative viability (EPLC-272H; first compound 1.265 µM): 0.2
relative viability (EPLC-272H; first compound 4 µM): 0.296
relative viability (NCI-H522; first compound 0.04 µM): 1.02
relative viability (NCI-H522; first compound 0.1265 µM): 1.23
relative viability (NCI-H522; first compound 0.4 µM): 1.2
relative viability (NCI-H522; first compound 1.265 µM): 1.15
relative viability (NCI-H522; first compound 4 µM): 1.1
relative viability (NCI-H460; first compound 0.04 µM): 0.0407
relative viability (NCI-H460; first compound 0.1265 µM): 0.0276
relative viability (NCI-H460; first compound 0.4 µM): 0.0374
relative viability (NCI-H460; first compound 1.265 µM): 0.0261
relative viability (NCI-H460; first compound 4 µM): 0.0364
relative viability (NCI-H1915; first compound 0.04 µM): 0.847
relative viability (NCI-H1915; first compound 0.1265 µM): 0.7
relative viability (NCI-H1915; first compound 0.4 µM): 0.828
relative viability (NCI-H1915; first compound 1.265 µM): 0.846
relative viability (NCI-H1915; first compound 4 µM): 0.758
